Columns and labels:
Format in all cases: in vivo
[1] = system: barnyardgrass (Echinochloa crus-galli); test: Test A preemergence soil spray, visual injury rating 0-100; settings: 10 days
How it was run: (§1)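 Compounds formulated in a non-phytotoxic solvent with surfactant are sprayed onto soil of freshly planted loam-sand pots ahead of emergence, or onto emerged plants 2-10 cm tall. After a 10-day greenhouse period, each species is scored visually for injury against untreated controls.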

[2] = system: blackgrass (Alopecurus myosuroides); test: as above; settings: 10 days
How it was run: as §1

[3] = system: corn (Zea mays); test: as above; settings: 10 days
How it was run: as §1

[4] = system: green foxtail (Setaria viridis); test: as above; settings: 10 days
How it was run: as §1

[5] = system: kochia (Bassia scoparia); test: as above; settings: 10 days
How it was run: as §1

[6] = system: oat, wild (wild oat, Avena fatua); test: as above; settings: 10 days
How it was run: as §1

[7] = system: ragweed (common ragweed, Ambrosia artemisiifolia); test: as above; settings: 10 days
How it was run: as §1

[8] = system: ryegrass, Italian (italian ryegrass, Lolium multiflorum); test: as above; settings: 10 days
How it was run: as §1

[9] = system: soybean (Glycine max); test: as above; settings: 10 days
How it was run: as §1

[10] = system: wheat (Triticum aestivum); test: as above; settings: 10 days
How it was run: as §1

[11] = system: barnyardgrass (Echinochloa crus-galli); test: Test A postemergence application, visual injury rating 0-100
How it was run: as §1

[12] = system: blackgrass (Alopecurus myosuroides); test: as above
How it was run: as §1

[13] = system: corn (Zea mays); test: as above
How it was run: as §1

[14] = system: galium (catchweed bedstraw, Galium aparine); test: as above
How it was run: as §1

[15] = system: green foxtail (Setaria viridis); test: as above
How it was run: as §1

[16] = system: horseweed (Erigeron canadensis); test: as above
How it was run: as §1

[17] = system: kochia (Bassia scoparia); test: as above
How it was run: as §1

[18] = system: oat, wild (wild oat, Avena fatua); test: as above
How it was run: as §1

[19] = system: palmer (palmer amaranth, palmer pigweed, Amaranthus palmeri); test: as above
How it was run: as §1

[20] = system: ragweed (common ragweed, Ambrosia artemisiifolia); test: as above
How it was run: as §1

[21] = system: ryegrass, Italian (italian ryegrass, Lolium multiflorum); test: as above
How it was run: as §1

[22] = system: soybean (Glycine max); test: as above
How it was run: as §1

[23] = system: wheat (Triticum aestivum); test: as above
How it was run: as §1

[24] = system: barnyardgrass (Echinochloa crusgalli); test: Test B flooded paddy test, visual plant response rating 0-100; settings: 250 g ai/ha, Flood, applied to paddy water, evaluated after 13 days
How it was run: (§2)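 2-leaf plants; flood 3 cm over soil; compound dosed into paddy water; depth kept constant; greenhouse 13 d; visual scoring vs controls. Dash = no result.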

[25] = system: ducksalad (Heteranthera limosa); test: as above; settings: 250 g ai/ha, Flood, applied to paddy water, evaluated after 13 days
How it was run: as §2

[26] = system: rice (Oryza sativa); test: as above; settings: 250 g ai/ha, Flood, applied to paddy water, evaluated after 13 days
How it was run: as §2

[27] = system: sedge, umbrella (small-flower umbrella sedge, Cyperus difformis); test: as above; settings: 250 g ai/ha, Flood, applied to paddy water, evaluated after 13 days
How it was run: as §2

[28] = 62 g ai/ha, 0 = no effect, 100 = complete control
[29] = 62 g ai/ha, postemergence, 10 days, 0 = no effect, 100 = complete control
[30] = Postemergence, 16 g ai/ha, greenhouse 10 days, 0 no effect, 100 complete control

Question: With CC1(C(=O)NC2CC(C(=O)O)C2)CN(c2cc(F)cc(Cl)c2)C(=O)O1 (racemic) [Compound 139] as the compound, how does the “Barnyardgrass plant response rating” value ([1]; 16 g ai/ha, 0 to 100 scale) read?
Answer: Its value is 10.

Question: What about the “Barnyardgrass plant response rating (0-100)” value [1, 28] of the same compound?
Answer: Its value is 70.

Question: And the “Blackgrass plant response rating” value ([2]; 16 g ai/ha, 0 to 100 scale)?
Answer: The value was 20.

Question: What about the “Blackgrass plant response rating (0-100)” value [2, 28] of the same compound?
Answer: The value was 80.

Question: And the “Corn plant response rating” value ([3]; 16 g ai/ha, 0 to 100 scale)?
Answer: The value was 0.

Question: And the “Corn plant response rating (0-100)” value [3, 28]?
Answer: The value was 90.

Question: And the “Foxtail, Green plant response rating” value ([4]; 16 g ai/ha, 0 to 100 scale)?
Answer: The value was 30.

Question: And the “Foxtail, Green plant response rating (0-100)” value [4, 28]?
Answer: The value was 90.

Question: And the “Kochia plant response rating” value ([5]; 16 g ai/ha, 0 to 100 scale)?
Answer: Its value is 0.

Question: And the “Kochia plant response rating (0-100)” value [5, 28]?
Answer: Its value is 90.

Question: What about the “Oat, Wild plant response rating” value ([6]; 16 g ai/ha, 0 to 100 scale) of the same compound?
Answer: The value was 20.

Question: What about the “Oat, Wild plant response rating (0-100)” value [6, 28] of the same compound?
Answer: Its value is 80.

Question: What about the “Ragweed plant response rating” value ([7]; 16 g ai/ha, 0 to 100 scale) of the same compound?
Answer: Its value is 0.

Question: What about the “Ragweed plant response rating (0-100)” value [7, 28] of the same compound?
Answer: Its value is 0.

Question: What about the “Ryegrass, Italian plant response rating” value ([8]; 16 g ai/ha, 0 to 100 scale) of the same compound?
Answer: Its value is 30.

Question: And the “Ryegrass, Italian plant response rating (0-100)” value [8, 28]?
Answer: The value was 90.

Question: What about the “Soybean plant response rating” value ([9]; 16 g ai/ha, 0 to 100 scale) of the same compound?
Answer: Its value is 0.

Question: And the “Soybean plant response rating (0-100)” value [9, 28]?
Answer: The value was 0.

Question: And the “Wheat plant response rating” value ([10]; 16 g ai/ha, 0 to 100 scale)?
Answer: The value was 90.

Question: And the “Wheat plant response rating (0-100)” value [10, 28]?
Answer: Its value is 90.

Question: What about the “Barnyardgrass plant response rating (0-100)” value [11, 29] of the same compound?
Answer: The value was 100.

Question: What about the “Barnyardgrass plant response rating (0 to 100 scale)” value [11, 30] of the same compound?
Answer: The value was 90.

Question: And the “Blackgrass plant response rating (0-100)” value [12, 29]?
Answer: Its value is 100.

Question: And the “Blackgrass plant response rating (0 to 100 scale)” value [12, 30]?
Answer: The value was 90.

Question: And the “Corn plant response rating (0-100)” value [13, 29]?
Answer: The value was 100.

Question: What about the “Corn plant response rating (0 to 100 scale)” value [13, 30] of the same compound?
Answer: The value was 100.

Question: What about the “Galium plant response rating (0-100)” value [14, 29] of the same compound?
Answer: Its value is 80.

Question: And the “Galium plant response rating (0 to 100 scale)” value [14, 30]?
Answer: Its value is 50.

Question: What about the “Foxtail, Green plant response rating (0-100)” value [15, 29] of the same compound?
Answer: The value was 90.

Question: And the “Foxtail, Green plant response rating (0 to 100 scale)” value [15, 30]?
Answer: Its value is 90.

Question: What about the “Horseweed plant response rating (0-100)” value [16, 29] of the same compound?
Answer: The value was 50.

Question: And the “Horseweed plant response rating (0 to 100 scale)” value [16, 30]?
Answer: Its value is 0.

Question: And the “Kochia plant response rating (0-100)” value [17, 29]?
Answer: The value was 90.

Question: What about the “Kochia plant response rating (0 to 100 scale)” value [17, 30] of the same compound?
Answer: Its value is 70.

Question: What about the “Oat, Wild plant response rating (0-100)” value [18, 29] of the same compound?
Answer: The value was 90.

Question: What about the “Oat, Wild plant response rating (0 to 100 scale)” value [18, 30] of the same compound?
Answer: Its value is 70.

Question: And the “Pigweed, Palmer plant response rating (0-100)” value [19, 29]?
Answer: Its value is 70.

Question: And the “Pigweed, Palmer plant response rating (0 to 100 scale)” value [19, 30]?
Answer: The value was 20.

Question: What about the “Ragweed plant response rating (0-100)” value [20, 29] of the same compound?
Answer: The value was 40.

Question: What about the “Ragweed plant response rating (0 to 100 scale)” value [20, 30] of the same compound?
Answer: The value was 40.

Question: What about the “Ryegrass, Italian plant response rating (0-100)” value [21, 29] of the same compound?
Answer: Its value is 70.

Question: And the “Ryegrass, Italian plant response rating (0 to 100 scale)” value [21, 30]?
Answer: Its value is 30.

Question: And the “Soybean plant response rating (0-100)” value [22, 29]?
Answer: The value was 60.

Question: And the “Soybean plant response rating (0 to 100 scale)” value [22, 30]?
Answer: The value was 60.

Question: What about the “Wheat plant response rating (0-100)” value [23, 29] of the same compound?
Answer: Its value is 90.

Question: And the “Wheat plant response rating (0 to 100 scale)” value [23, 30]?
Answer: The value was 90.

Question: And the “Plant response rating, Barnyardgrass (0 to 100 scale, 0 is no effect and 100 is complete control)” value [24]?
Answer: Its value is 0.

Question: And the “Plant response rating, Ducksalad (0 to 100 scale, 0 is no effect and 100 is complete control)” value [25]?
Answer: Its value is 0.

Question: And the “Plant response rating, Rice (0 to 100 scale, 0 is no effect and 100 is complete control)” value [26]?
Answer: The value was 0.

Question: And the “Plant response rating, Sedge, Umbrella (0 to 100 scale, 0 is no effect and 100 is complete control)” value [27]?
Answer: Its value is 0.

Source: patent US20260285850A1, “SUBSTITUTED OXAZOLIDINONES AND IMIDAZOLINONES AS HERBICIDES” (FMC CORPORATION, priority 2023, published 2026)
